Assay [1] relates to Guinea pig ventricular myocytes. The experiment in a line: Mitochondrial NADH autofluorescence in isolated myocytes during 1-Hz stimulation. The format is cell-based. As to conditions: 1-μM ouabain + 100-nM isoproterenol, without (ouabain) or with 1 μM CGP-37157; for NADH level before stimulation: before 1-Hz stimulation; for NADH level by the end of stimulation: end of 1-Hz stimulation (three minutes). How it is done: (§1) Guinea pig ventricular myocytes were isolated by enzymatic digestion as described previously. O'Rourke, B., et al., “Oscillations of membrane current and excitability driven by metabolic oscillations in heart cells,” Science, 265(5174):962-966 (Aug. 12, 1994). Cells were suspended in Dulbecco's Modification of Eagle's Medium (DMEM) supplemented with 5% fetal bovine serum, 1% penicillin/streptomycin, and 15 mmol/L HEPES, pH 7.4, and stored in a 5% CO2 incubator at 37° C.
(§2) Cytosolic Ca^2+ ([Ca^2+]c), mitochondrial Ca^2+ ([Ca^2+]m), and [Na^+]i were measured with the fluorescent indicators indo-1, rhod-2, and sodium-binding benzofuran isophthalate (SBFI), respectively (Invitrogen, Carlsbad, Calif.), and mitochondrial NADH was measured as the cellular autofluorescence with 360-nm excitation/450-nm emission. Indo-1 was loaded into cell with the membrane permeable form, indo-1 AM. To minimize indo-1 loading into the mitochondrial compartment, cells were briefly incubated with indo-1 AM at room temperature for 20 min. Rhod-2 and SBFI experiments were carried out as previously described. Maack et al., supra, Liu and O'Rourke, supra. Cytoplasmic rhod-2 was eliminated by using rhod-2-free patch pipettes. Maack et al., supra, Liu and O'Rourke, supra. The ROS-sensitive fluorescent probe 5-(−6)-chloromethyl-2′,7′-dichlorohydrofluorescein diacetate (CM-H2DCFDA) was used to monitor the extent of oxidative stress, as previously described. Aon, M. A., et al., “Synchronized whole cell oscillations in mitochondrial metabolism triggered by a local release of reactive oxygen species in cardiac myocytes,” J. Biol. Chem., 278(45):44735-44744 (Nov. 7, 2003). This probe is primarily localized in the mitochondrial matrix, see Aon et al., supra, and is oxidized by hydrogen peroxide to yield fluorescent CM-DCF, thus indirectly reporting mitochondrial superoxide production.
Isolated ventricular myocytes were loaded into a heated field-stimulation chamber (Warner Instruments, Hamden, Conn.) at 37° C. on the stage of a fluorescence microscope (Nikon Eclipse TE300, Nikon Instruments, Inc., Melville, N.Y.). The myocytes were first superfused with control Tyrode's solution containing: NaCl (130 mmol/L), KCl (5 mmol/L), MgCl2 (1 mmol/L), Na-HEPES (10 mmol/L), CaCl2 (2 mmol/L), glucose (10 mmol/L), at pH 7.4. After one minute of recording in the absence of electrical stimulation in control buffer, 1-μM ouabain and 100-nM isoproterenol, with or without 1 μM CGP-37157, were added to buffer. After another five minutes of recording, myocytes were field-stimulated at 1 Hz for three minutes followed by a two-minute recording after returning to the resting state. To record [Ca^2+]m and action potentials, myocytes were whole-cell patch-clamped at 37° C. […]

Assay [2] relates to Guinea pig hearts. The experiment in a line: Oxygen consumption in isolated perfused hearts. From the text:
(§3) Guinea pig hearts were quickly excised under anesthesia and mounted on a modified Langendorff apparatus attached to a Powerlab system (AD Instruments, Colorado Springs, Colo.). Hearts were perfused with gassed (95/5% O2/CO2) control buffer containing: 118-mM NaCl, 24-mM NaHCO3, 1.2-mM KH2PO4, 4.75-mM KCl, 1.2-mM MgSO4, 2.0-mM CaCl2, and 10-mM glucose. A buffer-filled latex balloon (Harvard apparatus) was inserted through the mitral valve into the left ventricle. Hearts were suspended in a buffer-filled heating chamber maintained at 37° C. and two electrodes were placed into the bath for volume-conducted electrocardiogram recordings. Heart rate, left ventricular developed pressure (LVDP), maximal rates of contraction and relaxation (±dP/dt), oxygen consumption, and electrocardiograms (ECG) were recorded on a computer. After a ten-minute equilibration period, hearts were subjected to the following protocol: ten-minute baseline recording while the heart was perfused with control buffer, ten-minute recording while 0.25-μM ouabain with or without 1 μM CGP-37157, and sixty-minute recording while hearts were stimulated with 25-nM isoproterenol. The measurements of hemodynamic parameters were determined by taking the average during the last two minutes before ouabain treatment (baseline) and for two minutes during the maximal effect on LVDP of either ouabain or isoproterenol.
Cardiac O2 concentration was measured with an O2 probe attached to a PowerLab system (AD Instruments). The probe was calibrated with 95% O2-saturated buffer as 100% and 100% N2-saturated buffer as 0%. The molar concentration of O2 consumption was calculated from percentage concentration with the following equation: VO2(μmol/min/g dwt)=CF×(0.02373/22.414)×((760−p)/760)×(ΔO2%/100)/dwt
where CF is coronary flow (mL/min); 0.02373 is the absorption coefficient of O2 in H2O at 37° C.; 22.414 is the volume (L) of 1 mol gas at STP; 760 is 1 atm in mm Hg; p equals 47.067, which is the vapor pressure of H2O at 37° C.; ΔO2% is the difference in O2 percentage concentration between inflow buffer collected from cannula before heart was mounted and outflow buffer collected from pulmonary artery; dwt is dry heart weight.

Assay [3] deals with Guinea pig hearts. The experiment in a line: Arrhythmia score and ventricular fibrillation in isolated perfused hearts. As to conditions: without or with CGP-37157; for Incidence of VF: hearts with VF / hearts, ouabain treatment and isoproterenol stimulation; for arrhythmia score: ten-minute ouabain treatment (0.25 μM), modified Score A, 0-4.
Description: as §3
Arrhythmias were characterized in accordance with the Lambeth Conventions, see Walker, M. J., et al., Cardiovasc. Res., 22(7):447-455 (July 1988), and scores were tabulated for the ten-minute period of ouabain treatment using modified Score A as described by Curtis, M. J. and Walker, M. J., “Quantification of arrhythmias using scoring systems: an examination of seven scores in an in vivo model of regional myocardial ischaemia,” Cardiovasc. Res., 22(9):656-665 (September 1988). Briefly, each heart was given a score based on the following criteria: 0: <50 ventricular premature beats; 1: 50-499 ventricular premature beats; 2: >500 ventricular premature beats and/or one episode of spontaneously reverting ventricular tachycardia or ventricular fibrillation; 3: more than one episode of spontaneously reverting ventricular tachycardia or fibrillation (<2 min); 4: >2 min of ventricular tachycardia or fibrillation.

Assay [4] concerns Guinea pig ventricular myocytes. The experiment in a line: ROS / oxidative stress (CM-H2DCFDA, CM-DCF oxidation) in isolated myocytes. The format is cell-based. Conditions: 100-nM isoproterenol with 1-μM ouabain, without or with 1-μM CGP-37157; 1-Hz stimulation. The procedure: as §1
Cytosolic Ca^2+ ([Ca^2+]c), mitochondrial Ca^2+ ([Ca^2+]m), and [Na^+]i were measured with the fluorescent indicators indo-1, rhod-2, and sodium-binding benzofuran isophthalate (SBFI), respectively (Invitrogen, Carlsbad, Calif.), and mitochondrial NADH was measured as the cellular autofluorescence with 360-nm excitation/450-nm emission. Indo-1 was loaded into cell with the membrane permeable form, indo-1 AM. To minimize indo-1 loading into the mitochondrial compartment, cells were briefly incubated with indo-1 AM at room temperature for 20 min. Rhod-2 and SBFI experiments were carried out as previously described. Maack et al., supra, Liu and O'Rourke, supra. […]
Isolated ventricular myocytes were loaded into a heated field-stimulation chamber (Warner Instruments, Hamden, Conn.) at 37° C. on the stage of a fluorescence microscope (Nikon Eclipse TE300, Nikon Instruments, Inc., Melville, N.Y.). […]

Assay [5] has the same test system. The experiment in a line: Cytosolic Ca2+ ([Ca2+]c, indo-1) cycling in isolated myocytes. Conditions: ouabain without or with CGP-37157; for diastolic [Ca2+]c before stimulation / diastolic [Ca2+]c after three minutes of stimulation / increase of amplitude of [Ca2+]c transient (Δ[Ca2+]c) compared to control: 100-nM isoproterenol; for diastolic [Ca2+]c before stimulation: before 1-Hz stimulation; for diastolic [Ca2+]c after three minutes of stimulation: end of 1-Hz stimulation; for increase of amplitude of [Ca2+]c transient (Δ[Ca2+]c) compared to control: midpoint of 1-Hz stimulation, control = isoproterenol only; for spontaneous Ca2+ oscillations / discordant contractions: prolonged stimulation. The assay is classed as cell-based. The procedure: as §1, §2
Isolated ventricular myocytes were loaded into a heated field-stimulation chamber (Warner Instruments, Hamden, Conn.) at 37° C. on the stage of a fluorescence microscope (Nikon Eclipse TE300, Nikon Instruments, Inc., Melville, N.Y.). The myocytes were first superfused with control Tyrode's solution containing: NaCl (130 mmol/L), KCl (5 mmol/L), MgCl2 (1 mmol/L), Na-HEPES (10 mmol/L), CaCl2 (2 mmol/L), glucose (10 mmol/L), at pH 7.4. After one minute of recording in the absence of electrical stimulation in control buffer, 1-μM ouabain and 100-nM isoproterenol, with or without 1 μM CGP-37157, were added to buffer. After another five minutes of recording, myocytes were field-stimulated at 1 Hz for three minutes followed by a two-minute recording after returning to the resting state. To record [Ca^2+]m and action potentials, myocytes were whole-cell patch-clamped at 37° C. Tyrode's solution was used as external solution and the internal solution contained: NaCl (10 mmol/L), KCl (19 mmol/L), K-glutamate (125 mmol/L), MgCl2 (0.5 mmol/L), HEPES (10 mmol/L), MgATP (5 mmol/L), at pH 7.25.

Setting [6] is: after ten minutes treatment of ouabain, without or with CGP-37157.

Data on two compounds can be found in patent US8791079B2, “Methods for treating heart failure by inhibiting the mitochondrial sodium-calcium exchanger (mNCE)” (priority 2009, dated 2014).

Each structure is given as a SMILES string. “And” between values parts separate entries of the source, which are not always exact repeats. Equal values may be shown once. Marks after values point to notes of the source that are not given here.

Regarding `O=C1CSC(c2ccccc2Cl)c2cc(Cl)ccc2N1` (stereo not shown) [CGP-37157, 7-chloro-5-(2-chlorophenyl)-1,5-dihydro-4,1-benzothiazepin-2(3H)-one], in assay [1], the “NADH level before stimulation” value came to 78.3±3.2% and the “NADH level by the end of stimulation” value is reported as 80.6±2.5%. Also, the “increase of whole-heart oxygen consumption (VO2) compared to baseline” value (from here on “increase … to baseline”) in the assay on Guinea pig hearts [2] (setting [6]) is 32%. Moreover, the “increase … to baseline” value in the assay with Guinea pig hearts [2] (ouabain followed by isoproterenol, without (isoproterenol) or with CGP-37157) was determined as 53%. For the same compound, in the assay on Guinea pig hearts [3], the “Incidence of VF” value is 2 out of 7 and the arrhythmia score is 1.1±0.4. In the assay with Guinea pig hearts [3] (listed as CGP), the “Incidence of VF” value is reported as 2/7*. In addition, the “oxidation of CM-DCF (oxidative stress)” value in assay [4] is reported as “abolished the increase in oxidative stress induced by ouabain”. For the same compound, in assay [5], the “diastolic [Ca2+]c before stimulation” value stood at 99 ± 14 nM, the “diastolic [Ca2+]c after three minutes of stimulation” value was found to be 370 ± 60 nM, the “increase of amplitude of [Ca2+]c transient (Δ[Ca2+]c) compared to control” value was 74% and the “spontaneous Ca2+ oscillations / discordant contractions” value is “significantly reduced the incidence of discordant contractions”.

For the compound `C[C@@H]1O[C@@H](O[C@H]2C[C@@H](O)[C@]3(CO)[C@H]4[C@H](O)C[C@]5(C)[C@@H](C6=CC(=O)OC6)CC[C@]5(O)[C@@H]4CC[C@]3(O)C2)[C@H](O)[C@H](O)[C@H]1O` [ouabain, 1β,3β,5β,11α,14,19-Hexahydroxycard-20(22)-enolide 3-(6-deoxy-α-L-mannopyranoside, reference compound], in assay [1], the “NADH level before stimulation” value was found to be 81.7±1.8% and the “NADH level by the end of stimulation” value is given as 52.3±5.7%. For the same compound, in the assay on Guinea pig hearts [2] (setting [6]), the “increase … to baseline” value amounted to 18%. In the assay on Guinea pig hearts [3], the “Incidence of VF” value was 7 out of 8 and 7/8; the arrhythmia score was determined as 2.7±0.5. The “oxidation of CM-DCF (oxidative stress)” value in assay [4] is listed as “higher rates of oxidation of CM-DCF”. In addition, in assay [5], the “diastolic [Ca2+]c before stimulation” value is 123 ± 9 nM; the “diastolic [Ca2+]c after three minutes of stimulation” value was 750 ± 142 nM; the “increase of amplitude of [Ca2+]c transient (Δ[Ca2+]c) compared to control” value is 112%; the “spontaneous Ca2+ oscillations / discordant contractions” value is “developed spontaneous Ca^2+ oscillations, extrasystolic contractions, and eventual hypercontracture”.
